According to patent US20240350441A1, “PHARMACEUTICAL FORMULATION AND A PROCESS FOR ITS PREPARATION” (SAVA HEALTHCARE LTD, priority 2021, published 2024):
Where a name gives a salt, the structure may show the parent alone. One block for each molecule: values may come before it.

How the values were obtained:
[1] = Solubility/stability of injectable cinnamic acid 6 mg/mL in diluents (HPLC, ICH); format: physicochemical; conditions: zero day
Protocol: 6 mg of cinnamic acid was dissolved in 300 μl of 100% ethanol, sonicated for 5 min and then diluted to 1 ml with 5% PEG 400/5% DMSO/5% ethyl lactate to obtain a clear solution of cinnamic acid in the injectable form (injectable formulation). The formulation was evaluated for stability as per ICH guidelines.

[2] = tested on: Cyclophosphamide induced neutropenia; assay: Cyclophosphamide induced neutropenia, hematological parameters (Example 10); format: in vivo, Female Swiss Albino mice; conditions: for Anti-neutropenic activity (words): inference from table 8A
Protocol: (§1) • 1. To induce neutropenia by administration of cyclophosphamide. • 2.
(§2) Materials: Female Swiss Albino mice weighing between 25-27 g was procured from Global Bioresearch Solutions Pvt Ltd., Pune.
(§3) On day 0, blood was withdrawn from all animals for basal hematological parameters. All the groups of animals except placebo group were injected with 150 mg/kg of cyclophosphamide through intraperitoneal route (i.p.), while group 1 was injected with water for injection, i.p. On Day 3, blood was withdrawn from all animals for Total and differential count (neutrophils, lymphocytes, and monocytes). The animals of group 2 to 7 were dosed with one additional dose of 100 mg/kg cyclophosphamide on Day 4. […] The cyclophosphamide control group was injected with water for injection from day 5 to day 9. On day 10, blood was withdrawn from all animals for total and differential count (neutrophils, lymphocytes, and monocytes), platelets, liver parameters AST (aspartate aminotransferase), ALT (alanine aminotransferase), and renal parameters—serum creatinine, blood urea nitrogen and uric acid.
(§4) • Pure Picroside 1—1 tablet was dissolved in 0.1 ml of sterile water for injection and 0.1 ml was injected as subcutaneous injection. • The degraded Picroside 1 without salt (cinnamic acid of the present disclosure)—1 tablet was dissolved in 0.1 ml of sterile water for injection and 0.1 ml was injected as subcutaneous injection. • The Cinnamic acid low dose (0.6 mg/tablet) treated tablet was dissolved in 0.1 ml of sterile water for injection and 0.1 ml was injected as subcutaneous injection. • The Cinnamic acid high dose treated (6 mg/tablet) tablet was dissolved in 0.1 ml of sterile water for injection and 0.1 ml was injected as subcutaneous injection.

[3] = tested on: Cyclophosphamide induced hepatotoxicity and renal changes; assay: Hepatic and renal parameters in cyclophosphamide induced neutropenia (Example 10); format: in vivo, Female Swiss Albino mice; conditions: for BUN (blood urea nitrogen) / SGOT Serum glutamic oxaloacetic transaminase / SGPT (Serum glutamic pyruvic transaminase) / Serum Creatinine / Uric acid: day 10
Protocol: as §1, §2, §3, §4

neutropenia = assay: Efficacy dose for anti-neutropenic activity and human equivalent dose; format: in vivo, mice
Protocol: The animal efficacy dose of the cinnamic acid prepared in accordance with the present disclosure was 0.6 mg/mice or 0.6 mg/25 g or 6 mg/250 g or 24 mg/kg mice.
The human dose of the cinnamic acid prepared in accordance with the present disclosure, AED (animal equivalent dose) was divided by 12.3=24/12.3=1.95 mg/kg HED (human equivalent dose).
The animal efficacy dose of the cinnamic acid prepared in accordance with the present disclosure was 6 mg/25 g or 60 mg/250 g mice or 240 mg cinnamic acid/kg.
The human dose of the cinnamic acid prepared in accordance with the present disclosure, AED (animal equivalent dose) was divided by 12.3=240/12.3=19.51 mg/kg HED (human equivalent dose).

[4] = Day 0, basal, 0.6 mg/tablet low dose
[5] = Day 0, basal, 6 mg/tablet high dose
[6] = Day 3, after cyclophosphamide, before treatment, 0.6 mg/tablet low dose
[7] = Day 3, after cyclophosphamide, before treatment, 6 mg/tablet high dose
[8] = Day 10, treated day 5 for 5 days, 0.6 mg/tablet low dose, 1 tablet per animal per day
[9] = Day 10, treated day 5 for 5 days, 6 mg/tablet high dose, 1 tablet per animal per day
[10] = vs CP control, day 10, cinnamic acid at both 0.6 mg/tablet low dose and 6 mg/tablet high dose
[11] = 0.6 mg/tablet low dose, 1 tablet per animal per day for 5 days
[12] = 6 mg/tablet high dose, 1 tablet per animal per day for 5 days
[13] = vs CP control, cinnamic acid at both 0.6 mg/tablet low dose and 6 mg/tablet high dose
[14] = Day 0, basal, G-CSF 2 μg, Picroside tablets groups
[15] = Day 3, after cyclophosphamide, before treatment, G-CSF 2 μg, Picroside tablets groups
[16] = Day 10, treated day 5 for 5 days, G-CSF 2 μg s.c., others 1 tablet per animal per day
[17] = G-CSF 2 μg s.c., others 1 tablet per animal per day for 5 days

HPLC area ([1]; 30% Ethanol with 3.5% PEG400): 3128043
HPLC area ([1]; 30% Ethanol with 5% DMSO): 3276296
HPLC area ([1]; 30% Ethanol with 5% Ethyl lactate): 3175284
HPLC area ([1]; 100% Methanol): 3379040
SMILES: O=C(O)C=Cc1ccccc1 [The commercial synthetic Cinnamic acid, 3-Phenyl-2-propenoic acid]
% Lymphocytes [2, 4]: 45.17%
% Monocytes [2, 4]: 6.66%
% Neutrophils [2, 4]: 40.33%
No of Platelets [2, 4]: 736600 per cu · mm of blood
Total WBC Count [2, 4]: 7465 per cu · mm of blood
% Lymphocytes [2, 5]: 46.83%
% Monocytes [2, 5]: 6.82%
% Neutrophils [2, 5]: 40.17%
No of Platelets [2, 5]: 772500 per cu · mm of blood
Total WBC Count [2, 5]: 7237 per cu · mm of blood
% Lymphocytes [2, 6]: 83.67%
% Monocytes [2, 6]: 1.82%
% Neutrophils [2, 6]: 6.50%
No of Platelets [2, 6]: 630500 per cu · mm of blood
Total WBC Count [2, 6]: 2289 per cu · mm of blood
% Lymphocytes [2, 7]: 84%
% Monocytes [2, 7]: 1.66%
% Neutrophils [2, 7]: 6.333%
No of Platelets [2, 7]: 637000 per cu · mm of blood
Total WBC Count [2, 7]: 2306 per cu · mm of blood
% Lymphocytes [2, 8]: 61%
% Monocytes [2, 8]: 5.82%
% Neutrophils [2, 8]: 27.67%
No of Platelets [2, 8]: 641400 per cu · mm of blood
Total WBC Count [2, 8]: 4460 per cu · mm of blood
% Lymphocytes [2, 9]: 53%
% Monocytes [2, 9]: 5.82%
% Neutrophils [2, 9]: 33.17%
No of Platelets [2, 9]: 660300 per cu · mm of blood
Total WBC Count [2, 9]: 5389 per cu · mm of blood
Anti-neutropenic activity (words) ([2]; listed as The commercial synthetic cinnamic acid): active to address neutropenia
Effect on % lymphocytes [2, 10]: significant (p<0.001) decrease in % lymphocytes
Effect on % monocytes [2, 10]: significantly (p<0.001) reversed
Effect on % neutrophil [2, 10]: significantly (p<0.001) alleviated the cyclophosphamide-induced neutropenia
Effect on platelet count [2, 10]: did not cause significant change in the platelet count
Effect on total WBC count [2, 10]: significantly (p<0.001) reversed the cyclophosphamide induced decrease in WBC count
BUN (blood urea nitrogen) [3, 11]: 9.533 mmol/L
SGOT Serum glutamic oxaloacetic transaminase [3, 11]: 33.67 IU/L
SGPT (Serum glutamic pyruvic transaminase) [3, 11]: 36.5 IU/L
Serum Creatinine [3, 11]: 38.5 µM
Uric acid [3, 11]: 16.82 mg/L
BUN (blood urea nitrogen) [3, 12]: 9.383 mmol/L
SGOT Serum glutamic oxaloacetic transaminase [3, 12]: 29.33 IU/L
SGPT (Serum glutamic pyruvic transaminase) [3, 12]: 32.17 IU/L
Serum Creatinine [3, 12]: 37.5 µM
Uric acid [3, 12]: 16.66 mg/L
Effect on BUN level [3, 13]: significant (p<0.001) decrease in BUN level
Effect on SGOT level [3, 13]: significant (p<0.001) decrease in SGOT
Effect on SGPT level [3, 13]: significant reversal (p<0.001)
Effect on serum creatinine level [3, 13]: significant (p<0.001) decrease in creatinine level
Effect on uric acid level [3, 13]: significant reversal (p<0.001) of uric acid level

SMILES: O=C(O)C=Cc1ccccc1 [The degraded Picroside 1 without salt, cinnamic acid]
% Lymphocytes [2, 14]: 46.5%
% Monocytes [2, 14]: 6.50%
% Neutrophils [2, 14]: 38.83%
No of Platelets [2, 14]: 759400 per cu · mm of blood
Total WBC Count [2, 14]: 7644 per cu · mm of blood
% Lymphocytes [2, 15]: 83.5%
% Monocytes [2, 15]: 1.82%
% Neutrophils [2, 15]: 6.667%
No of Platelets [2, 15]: 624000 per cu · mm of blood
Total WBC Count [2, 15]: 2253 per cu · mm of blood
% Lymphocytes [2, 16]: 58.83%
% Monocytes [2, 16]: 5.50%
% Neutrophils [2, 16]: 25.17%
No of Platelets [2, 16]: 631900 per cu · mm of blood
Total WBC Count [2, 16]: 3705 per cu · mm of blood
Anti-neutropenic activity (words) ([2]; listed as the degraded Picroside 1 without salt): shows better anti-neutropenic activity
BUN (blood urea nitrogen) [3, 17]: 9.467 mmol/L
SGOT Serum glutamic oxaloacetic transaminase [3, 17]: 27.5 IU/L
SGPT (Serum glutamic pyruvic transaminase) [3, 17]: 30.33 IU/L
Serum Creatinine [3, 17]: 41 µM
Uric acid [3, 17]: 21.50 mg/L
Hepatic and renal parameters in neutropenic animal model ([3]; inference from table 8B, as compared to GCSF): improved hepatic and renal parameters
animal efficacy dose for anti-neutropenic activity (neutropenia; from 0.6 mg/mice (0.6 mg/25 g)): 24 mg/kg
animal efficacy dose (neutropenia; from 6 mg/25 g mice): 240 mg cinnamic acid/kg
